ChEMBL document CHEMBL5346964, “Discovery of LNP1892: A Precision Calcimimetic for the Treatment of Secondary Hyperparathyroidism” (J Med Chem, 2023)
Values belong to the compound of their own block, whether it stands above or below them.

What was measured:
Rattus norvegicus = assay: Effect on parathyroid hormone in po dosed overnight fasted Sprague-Dawley rat assessed as reduction in plasma PTH level measured after 0.5 to 6 hrs of post treatment by sandwich ELISA analysis; assay type: functional, organism-based; conditions: dose 3-30 mg/kg, time 0.5-6 hrs
CYP2D6 [1] = target: T1, CYP2D6 (Homo sapiens, UniProt P10635); assay: Inhibition of CYP2D6 in human liver microsomes at 10 uM preincubated for 5 mins followed by NADPH addition by LC-MS/MS analysis relative to control; assay type: ADME, Microsome
[2] = AUClast in Sprague-Dawley rat at 10 mg/kg, po measured upto 24 hrs by LC-MS/MS analysis; assay type: ADME, organism-based; design: dose 10 mg/kg, time < 24 hrs, route po; conditions: in vivo
[3] = Effect on parathyroid hormone in overnight fasted Sprague-Dawley rat assessed as reduction in plasma PTH level at 30 mg/kg, po measured after 2 hrs of post treatment by sandwich ELISA analysis; assay type: functional; design: scale not given: the % may be the effect or the level left
[4] = Cmax in Sprague-Dawley rat at 1 mg/kg, iv measured upto 24 hrs by LC-MS/MS analysis; assay type: ADME, organism-based; design: dose 1 mg/kg, time < 24 hrs, route iv; conditions: in vivo
[5] = Microsomal stability in human liver microsomes assessed as parent compound remaining at 1 uM measured upto 30 mins in presence of NADPH by LC-MS/MS analysis; assay type: ADME, Microsome; conditions: for remaining at 0.5 h, 1 µM: liver microsomes, read-out: Stability; for Stability: microsomes, 0.5 h, 1 µM
hERG [6] = target: T2, hERG (Homo sapiens, UniProt Q12809); assay: (§1) Inhibition of hERG at 1 uM relative to control; assay type: toxicity
[7] = Effect on parathyroid hormone in overnight fasted Sprague-Dawley rat assessed as reduction in plasma PTH level at 10 mg/kg, po measured after 2 hrs of post treatment by sandwich ELISA analysis; assay type: functional; design: scale not given: the % may be the effect or the level left
[8] = Effect on parathyroid hormone in overnight fasted Sprague-Dawley rat assessed as reduction in plasma PTH level at 30 mg/kg, po measured after 1 hrs of post treatment by sandwich ELISA analysis; assay type: functional; design: scale not given: the % may be the effect or the level left
[9] = Effect on parathyroid hormone in overnight fasted Sprague-Dawley rat assessed as reduction in plasma PTH level at 30 mg/kg, po measured after 4 hrs of post treatment by sandwich ELISA analysis; assay type: functional; design: scale not given: the % may be the effect or the level left
[10] = Effect on parathyroid hormone in overnight fasted Sprague-Dawley rat assessed as reduction in plasma PTH level at 10 mg/kg, po measured after 4 hrs of post treatment by sandwich ELISA analysis (reference value: 18%); assay type: functional; design: scale not given: the % may be the effect or the level left
[11] = Oral bioavailability in Sprague-Dawley rat at 10 mg/kg measured upto 24 hrs by LC-MS/MS analysis; assay type: ADME, organism-based; conditions: in vivo
[12] = Clearance in Sprague-Dawley rat at 1 mg/kg, iv measured upto 24 hrs by LC-MS/MS analysis; assay type: ADME, organism-based; conditions: in vivo
[13] = Half life in Sprague-Dawley rat at 1 mg/kg, iv measured upto 24 hrs by LC-MS/MS analysis; assay type: ADME, organism-based; conditions: in vivo
[14] = Effect on parathyroid hormone in overnight fasted Sprague-Dawley rat assessed as reduction in plasma PTH level at 10 mg/kg, po measured after 1 hrs of post treatment by sandwich ELISA analysis; assay type: functional; design: scale not given: the % may be the effect or the level left
[15] = Cmax in Sprague-Dawley rat at 10 mg/kg, po measured upto 24 hrs by LC-MS/MS analysis; assay type: ADME, organism-based; design: time < 24 hrs, dose 10 mg/kg, route po; conditions: in vivo
[16] = Tmax in Sprague-Dawley rat at 10 mg/kg, po measured upto 24 hrs by LC-MS/MS analysis; assay type: ADME, organism-based; conditions: in vivo
[17] = AUClast in Sprague-Dawley rat at 1 mg/kg, iv measured upto 24 hrs by LC-MS/MS analysis; assay type: ADME, organism-based; design: dose 1 mg/kg, time < 24 hrs, route iv; conditions: in vivo
[18] = Volume of distribution at steady state in Sprague-Dawley rat at 1 mg/kg, iv measured upto 24 hrs by LC-MS/MS analysis; assay type: ADME, organism-based; conditions: in vivo, read-out: Vdss
[19] = Tmax in Sprague-Dawley rat at 1 mg/kg, iv measured upto 24 hrs by LC-MS/MS analysis; assay type: ADME, organism-based; conditions: in vivo
CYP2D6 [20] = target: T1, CYP2D6; assay: Inhibition of CYP2D6 in human liver microsomes at 1 uM preincubated for 5 mins followed by NADPH addition by LC-MS/MS analysis relative to control; assay type: ADME, Microsome
[21] = Effect on parathyroid hormone in overnight fasted Sprague-Dawley rat assessed as reduction in plasma PTH level at 10 mg/kg, po measured after 0.5 hrs of post treatment by sandwich ELISA analysis; assay type: functional; design: scale not given: the % may be the effect or the level left
[22] = Microsomal stability in rat liver microsomes assessed as parent compound remaining at 1 uM measured upto 30 mins in presence of NADPH by LC-MS/MS analysis; assay type: ADME, Microsome; conditions: read-out: Stability
[23] = Effect on parathyroid hormone in overnight fasted Sprague-Dawley rat plasma assessed as reduction in PTH level at 30 mg/kg, po measured after 0.5 hrs of post treatment by sandwich ELISA analysis; assay type: functional; design: scale not given: the % may be the effect or the level left
hERG [24] = target: T2, hERG; assay: (§2) Inhibition of hERG at 10 uM relative to control; assay type: toxicity
[25] = target: T3, Extracellular calcium-sensing receptor (Homo sapiens, UniProt P41180); assay: Agonist activity at human CaSR expresssed in HEK293 cells in presence of glucose by Fluo4NW dye based FLIPR assay; assay type: functional, cell-based; conditions: read-out: EC50
T3 sequence (P41180 whole entry): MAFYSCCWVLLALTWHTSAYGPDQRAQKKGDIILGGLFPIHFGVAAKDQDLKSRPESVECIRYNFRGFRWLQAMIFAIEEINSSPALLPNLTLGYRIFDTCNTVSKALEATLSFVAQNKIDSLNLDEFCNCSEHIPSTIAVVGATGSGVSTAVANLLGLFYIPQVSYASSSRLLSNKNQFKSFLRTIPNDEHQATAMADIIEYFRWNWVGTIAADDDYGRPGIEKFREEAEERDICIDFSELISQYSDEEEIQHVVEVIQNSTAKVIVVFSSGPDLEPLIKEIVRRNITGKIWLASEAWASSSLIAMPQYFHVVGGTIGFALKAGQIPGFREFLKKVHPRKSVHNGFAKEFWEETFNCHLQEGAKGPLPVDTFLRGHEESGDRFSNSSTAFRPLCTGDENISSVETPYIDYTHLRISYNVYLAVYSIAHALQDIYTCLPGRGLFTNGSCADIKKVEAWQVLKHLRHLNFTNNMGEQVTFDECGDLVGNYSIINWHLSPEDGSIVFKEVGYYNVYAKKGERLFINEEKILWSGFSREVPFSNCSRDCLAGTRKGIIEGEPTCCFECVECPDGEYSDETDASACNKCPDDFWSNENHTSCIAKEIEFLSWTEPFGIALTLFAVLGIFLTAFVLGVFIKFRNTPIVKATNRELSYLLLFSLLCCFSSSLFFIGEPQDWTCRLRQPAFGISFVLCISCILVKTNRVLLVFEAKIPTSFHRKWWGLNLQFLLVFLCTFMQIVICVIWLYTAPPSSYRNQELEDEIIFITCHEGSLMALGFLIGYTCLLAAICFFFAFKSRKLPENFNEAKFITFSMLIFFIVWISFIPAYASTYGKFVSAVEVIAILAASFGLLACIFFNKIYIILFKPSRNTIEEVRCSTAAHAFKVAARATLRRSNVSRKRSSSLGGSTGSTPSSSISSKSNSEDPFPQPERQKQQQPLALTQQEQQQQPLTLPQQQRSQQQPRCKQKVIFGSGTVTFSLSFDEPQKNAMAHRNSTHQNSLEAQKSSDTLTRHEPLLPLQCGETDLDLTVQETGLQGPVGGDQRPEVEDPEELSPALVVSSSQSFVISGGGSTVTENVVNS

[26] = target: T4, Voltage-gated inwardly rectifying potassium channel KCNH2 (Homo sapiens, UniProt Q12809); assay: as §1; assay type: toxicity; conditions: 1 µM
[27] = target: T4, Voltage-gated inwardly rectifying potassium channel KCNH2; assay: as §2; assay type: toxicity; conditions: 10 µM
in vivo [28] = conditions: Sprague-Dawley, rat, po, 1 mg/kg
Description: Tmax in Sprague-Dawley rat at 1 mg/kg, po measured upto 24 hrs by LC-MS/MS analysis

in vivo [29] = conditions: Sprague-Dawley, rat, po, 1 mg/kg; remark: listed apart in the source
Description: Cmax in Sprague-Dawley rat at 1 mg/kg, po measured upto 24 hrs by LC-MS/MS analysis

[30] = Half life in Sprague-Dawley rat at 0.3 mg/kg, iv measured upto 24 hrs by LC-MS/MS analysis; conditions: in vivo
[31] = AUClast in Sprague-Dawley rat at 1 mg/kg, po measured upto 24 hrs by LC-MS/MS analysis; assay type: ADME, organism-based; design: dose 1 mg/kg, time < 24 hrs, route po; conditions: in vivo
[32] = Clearance in Sprague-Dawley rat at 0.3 mg/kg, iv measured upto 24 hrs by LC-MS/MS analysis; conditions: in vivo
[33] = Half life in Sprague-Dawley rat at 1 mg/kg, po measured upto 24 hrs by LC-MS/MS analysis; conditions: in vivo
[34] = Volume of distribution at steady state in Sprague-Dawley rat at 0.3 mg/kg, iv measured upto 24 hrs by LC-MS/MS analysis; conditions: in vivo
in vivo [35] = conditions: Sprague-Dawley, rat, iv, 0.3 mg/kg
Description: Cmax in Sprague-Dawley rat at 0.3 mg/kg, iv measured upto 24 hrs by LC-MS/MS analysis

[36] = AUClast in Sprague-Dawley rat at 0.3 mg/kg, iv measured upto 24 hrs by LC-MS/MS analysis; assay type: ADME, organism-based; design: dose 0.3 mg/kg, time < 24 hrs, route iv; conditions: in vivo

T1 sequence (P10635 whole entry): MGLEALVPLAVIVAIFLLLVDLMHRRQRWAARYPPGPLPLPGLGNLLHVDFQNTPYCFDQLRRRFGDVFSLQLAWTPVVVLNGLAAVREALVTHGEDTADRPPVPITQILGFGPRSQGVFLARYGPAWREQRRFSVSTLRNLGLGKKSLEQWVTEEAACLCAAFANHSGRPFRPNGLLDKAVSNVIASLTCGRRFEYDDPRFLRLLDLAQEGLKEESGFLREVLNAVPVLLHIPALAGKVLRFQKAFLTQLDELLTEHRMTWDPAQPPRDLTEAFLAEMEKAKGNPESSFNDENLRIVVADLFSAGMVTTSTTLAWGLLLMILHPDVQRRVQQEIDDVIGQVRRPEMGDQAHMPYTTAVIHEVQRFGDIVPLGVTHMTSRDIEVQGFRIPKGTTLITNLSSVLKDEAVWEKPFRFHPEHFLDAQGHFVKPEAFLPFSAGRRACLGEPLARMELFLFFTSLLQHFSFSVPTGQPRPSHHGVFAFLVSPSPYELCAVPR
T2 sequence (Q12809 whole entry): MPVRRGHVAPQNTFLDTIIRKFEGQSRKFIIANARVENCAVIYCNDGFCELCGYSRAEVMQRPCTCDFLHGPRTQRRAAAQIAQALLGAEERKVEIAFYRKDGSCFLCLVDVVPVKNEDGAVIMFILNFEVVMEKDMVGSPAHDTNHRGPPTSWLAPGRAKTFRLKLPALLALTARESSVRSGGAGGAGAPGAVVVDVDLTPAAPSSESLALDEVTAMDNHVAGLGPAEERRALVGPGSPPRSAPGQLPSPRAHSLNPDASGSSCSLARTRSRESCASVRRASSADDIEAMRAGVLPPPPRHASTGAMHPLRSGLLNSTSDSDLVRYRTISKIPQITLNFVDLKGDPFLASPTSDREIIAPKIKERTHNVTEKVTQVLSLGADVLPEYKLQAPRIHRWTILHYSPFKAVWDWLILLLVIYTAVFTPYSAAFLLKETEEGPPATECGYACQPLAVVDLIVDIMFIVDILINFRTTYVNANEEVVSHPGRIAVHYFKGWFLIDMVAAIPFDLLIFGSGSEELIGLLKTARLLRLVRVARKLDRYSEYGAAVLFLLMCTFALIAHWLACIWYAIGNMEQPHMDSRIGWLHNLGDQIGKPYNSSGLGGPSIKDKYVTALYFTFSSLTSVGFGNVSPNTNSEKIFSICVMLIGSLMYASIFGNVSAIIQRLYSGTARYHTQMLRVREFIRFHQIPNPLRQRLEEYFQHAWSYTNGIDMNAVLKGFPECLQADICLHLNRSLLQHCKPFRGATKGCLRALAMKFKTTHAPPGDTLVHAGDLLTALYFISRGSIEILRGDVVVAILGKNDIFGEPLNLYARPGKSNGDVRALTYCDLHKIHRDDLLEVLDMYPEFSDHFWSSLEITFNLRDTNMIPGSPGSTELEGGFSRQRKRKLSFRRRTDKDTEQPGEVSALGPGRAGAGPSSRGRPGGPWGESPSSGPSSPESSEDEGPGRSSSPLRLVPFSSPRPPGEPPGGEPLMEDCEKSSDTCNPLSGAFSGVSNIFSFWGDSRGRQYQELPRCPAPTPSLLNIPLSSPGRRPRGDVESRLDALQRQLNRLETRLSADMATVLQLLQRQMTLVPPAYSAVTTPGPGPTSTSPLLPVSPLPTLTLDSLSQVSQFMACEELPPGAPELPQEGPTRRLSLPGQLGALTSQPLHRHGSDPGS
T4 sequence (Q12809 whole entry): as above

inhibition at 10 µM (CYP2D6 [1]): 47%
AUC(0-t) at 24 h [2]: 55 µM·h
Cmax [4]: 5 µM
remaining at 0.5 h, 1 µM [5]: 45%
bioavailability [11]: 79%
clearance [12]: 5 mL/min/kg
half-life [13]: 180 min
Cmax [15]: 13 µM
Tmax [16]: 3 min
AUC(0-t) at 24 h [17]: 7 µM·h
Vd [18]: 1 L/kg
Tmax [19]: 4.8 min
inhibition at 1 µM (CYP2D6 [20]): 44%
remaining at 0.5 h, 1 µM [22]: 55%
EC50 [25]: 7 nM
Compound: Cc1ccc(N2CC(CN[C@H](C)c3cccc4ccccc34)Oc3ccccc32)cc1C(=O)O.Cl (some centres not stated)
Activity [3]: 100%
inhibition at 1 µM (hERG [6]): 7%
Activity [7]: 100%
Activity [8]: 97%
Activity [9]: 92%
Activity [10]: 66%
Activity [14]: 86%
Activity [21]: 100%
Activity [23]: 100%
inhibition at 10 µM (hERG [24]): 14%

Stability [5]: 10%
EC50 [25]: 49.5 nM
Compound: Cc1c(C(=O)O)cccc1N1CC(CN[C@H](C)c2cccc3ccccc23)Oc2ccccc21.Cl (mixture of isomers; form 2)
inhibition (INH) [26]: -28%
inhibition (INH) [27]: -16%

inhibition at 10 µM (CYP2D6 [1]): 43%
Stability [5]: 40%
inhibition at 1 µM (CYP2D6 [20]): 26%
remaining at 0.5 h, 1 µM [22]: 45%
EC50 [25]: 47.5 nM
Compound: Cc1c(C(=O)O)cccc1N1CC(CN[C@H](C)c2cccc3ccccc23)Oc2ccccc21.Cl (mixture of isomers; form 1)
inhibition (INH) [26]: -8%
inhibition (INH) [27]: -5%

Second part, the compound before the results:

Compound: Cc1ccc(N2CC(CN[C@H](C)c3cccc4ccccc34)Oc3ccccc32)cc1C(=O)O (some centres not stated)
Activity (Rattus norvegicus): Dose-Dependent Effect

Compound: C[C@@H](N[C@H]1CCN(c2ccc(CC(=O)O)cc2)C1)c1cccc2ccccc12 [EVOCALCET]
Tmax at 24 h (in vivo [28]): 48.6 min
Cmax at 24 h (in vivo [29]): 5.84 µM
half-life at 24 h [30]: 439 min
remaining at 0.5 h, 1 µM [5]: 68%
AUC(0-t) at 24 h [31]: 23 µM·h
clearance at 24 h [32]: 1.67 mL/min/kg
half-life at 24 h [33]: 368 min
Vd at 24 h [34]: 0.591 L/kg
Cmax at 24 h (in vivo [35]): 270 nM
remaining at 0.5 h, 1 µM [22]: 34%
AUC(0-t) at 24 h [36]: 8.03 µM·h

Compound: Cc1ccc([C@@H]2C[C@@H](CN[C@H](C)c3cccc4ccccc34)Oc3ccccc32)cc1C(=O)O
inhibition at 10 µM (CYP2D6 [1]): 41%
remaining at 0.5 h, 1 µM [5]: 74%
inhibition at 1 µM (hERG [6]): 4%
inhibition at 1 µM (CYP2D6 [20]): 8%
remaining at 0.5 h, 1 µM [22]: 47%
inhibition at 10 µM (hERG [24]): -1%
EC50 [25]: 33.6 nM

Compound: Cc1cc(C(=O)O)cc([C@@H]2C[C@H](CN[C@H](C)c3cccc4ccccc34)Oc3ccccc32)c1
inhibition at 10 µM (CYP2D6 [1]): 33%
remaining at 0.5 h, 1 µM [5]: 80%
inhibition at 1 µM (hERG [6]): 0%
inhibition at 1 µM (CYP2D6 [20]): 0%
remaining at 0.5 h, 1 µM [22]: 25%
inhibition at 10 µM (hERG [24]): 6%
EC50 [25]: 8.3 nM
